Reference: patent publication US20220125900A1, “NEOANTIGENS IN CANCER” (priority 2019, published 2022)

System: IFNγ response of splenocytes
Experiment: IFNγ ELISpot assay on splenocytes of vaccinated Balb/c mice
Type: in vivo
Conditions: splenocytes of mice vaccinated with Ancer-selected CT26 Neoantigen Peptides+Poly-ICLC, stimulated overnight; positive = >50 SFC/million over background and stimulation index >2-fold
Source text: Balb/c mice were separated into three groups: A) Vehicle control; B) Ancer™-selected CT26 Neoantigen Peptides+adjuvant; C) Ancer™-selected CT26 Neoantigen Peptides+JANUSMATRIX™ MHC class II selected peptides+adjuvant. All vaccines were formulated with the addition of the adjuvant Poly-ICLC. Poly-ICLC, also known as Hiltonol, is a synthetic double-stranded RNA (dsRNA) agonist for pattern recognition receptors (PRRs), and TLR3 agonist. Groups A, B, and C received an initial vaccination with subsequent boosts of vaccine at 2- and 4-weeks post initial vaccination. All mice are sacrificed at 7-10 days after the final boost and spleens were harvested for splenocyte isolation and IFNγ ELISpot assay.
Group A: 50 ug Poly-ICLC in 200 uL
Group B: 20 Ancer™-selected CT26 Neoantigen Peptides at 5 ug/peptide, 100 ug total peptide, 50 ug Poly-ICLC, 200 uL […]
Isolated splenocytes were plated and stimulated with Ancer™-selected CT26 Neoantigen Peptides (CT26 pool), JANUSMATRIX™ selected peptides (CT26-Treg_pool), class I peptide pool, as well as individual Ancer™-selected CT26 Neoantigen peptide CT26-1 (CT26_peptide 1) and CT26-20 ([…]). Plates were incubated overnight and then read. […] Statistical significance was determined by Student's T-test; per mouse—antigen vs. no antigen stimulus, as well as group comparisons (p<0.05).

Substance: Ac-LQARLTSYETLK-NH2 [CT26-1]
- epitope-specific IFNγ response on recall stimulation (immunogenic): significant epitope-specific IFNγ response
